Reference: US9963462B2 (priority 2015, dated 2018)

Key:
[1] = target: SNAP-hSPR (sepiapterin reductase, SPR) (Homo sapiens, UniProt P35270); assay: biochemical; type: binding; conditions: terbium labelled SNAP-hSPR / SSZ labelled SNAP-EGFP; read-out: hTR-FRET IC50
[2] = tested on: BH4 levels in SK-N-BE (2) cells; assay: SKN-N-BE (2) cellular assay, BH4 levels by LC-MS; type: cell-based; conditions: Homo sapiens, SKNBE2, read-out: SK-N-BE(2) IC50, SK-N-BE (2) cells, BH4 levels by LC-MS

SNAP-hSPR (sepiapterin reductase, SPR), sequence (P35270 whole entry): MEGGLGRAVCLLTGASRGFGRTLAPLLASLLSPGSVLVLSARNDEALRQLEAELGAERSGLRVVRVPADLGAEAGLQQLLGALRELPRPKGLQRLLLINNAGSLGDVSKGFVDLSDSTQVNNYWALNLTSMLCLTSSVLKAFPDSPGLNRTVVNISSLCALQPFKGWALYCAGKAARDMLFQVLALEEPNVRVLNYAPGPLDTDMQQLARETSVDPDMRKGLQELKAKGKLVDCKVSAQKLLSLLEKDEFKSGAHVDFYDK

## Cc1cc(=O)[nH]c(-n2ncc(C(=O)N3CCc4ccccc4C3)c2Cc2ccccc2)n1 [Q-0358]
[1]
  IC50: 100 nM
[2]
  IC50: 22000 nM

## Cc1cc(=O)[nH]c(-n2ncc(C(=O)N3CCC(C(F)(F)F)CC3)c2C)n1 [Q-0359]
[1]
  IC50: 3 nM
[2]
  IC50: 1100 nM

## Cc1cc(=O)[nH]c(-n2ncc(C(=O)NC3CCCc4ccccc43)c2C)n1 (stereo not shown) [Q-0362]
[1]
  IC50: 20 nM
[2]
  IC50: 2900 nM

## Cc1cc(=O)[nH]c(-n2ncc(C(=O)NC3CCc4ccccc43)c2C)n1 (stereo not shown) [Q-0363]
[1]
  IC50: 30 nM
[2]
  IC50: 5800 nM

## Cc1cc(=O)[nH]c(-n2ncc(C(=O)NCC(F)(F)C(F)(F)F)c2C)n1 [Q-0364]
[1]
  IC50: 70 nM
[2]
  IC50: 16000 nM

## Cc1cc(=O)[nH]c(-n2nc(C(=O)N3CCc4ccccc4C3)cc2C)n1 [Q-0365, 6-methyl-2-[5-methyl-3-(1,2,3,4-tetrahydroisoquinoline-2-carbonyl)-1H-pyrazol-1-yl]-3,4-dihydropyrimidin-4-one]
[1]
  IC50: 50 nM
[2]
  IC50: 12000 nM

## Cc1cc(=O)[nH]c(-n2cc(C)c(C(=O)N3CCc4ccccc4C3)n2)n1 [Q-0366]
[1]
  IC50: 400 nM
[2]
  IC50: 128000 nM

## Cc1cc(=O)[nH]c(-n2ncc(C(=O)NCCC(F)(F)F)c2C)n1 [Q-0367]
[1]
  IC50: 70 nM
[2]
  IC50: 11000 nM

## Cc1cc(=O)[nH]c(-n2ncc(C(=O)N3CCCC(C(F)(F)F)C3)c2C)n1 (stereo not shown) [Q-0368]
[1]
  IC50: 10 nM
[2]
  IC50: 2900 nM

## Cc1cc(=O)[nH]c(-n2ncc(C(=O)N3CCN(c4ccccn4)CC3)c2Cc2ccccc2)n1 [Q-0369]
[1]
  IC50: 200 nM
[2]
  IC50: 28000 nM

## Cc1cc(=O)[nH]c(-n2ncc(C(=O)NC3CCCC3)c2Cc2ccccc2)n1 [Q-0370]
[1]
  IC50: 100 nM
[2]
  IC50: 22000 nM

## Cc1cc(=O)[nH]c(-n2ncc(C(=O)N3CCC(C)(C)C3)c2CC(C)C)n1 [Q-0371]
[1]
  IC50: 70 nM
[2]
  IC50: 14000 nM

## Cc1cc(=O)[nH]c(-n2ncc(C(=O)N(C)C3CCCc4ccccc43)c2C)n1 (stereo not shown) [Q-0373]
[1]
  IC50: 20 nM
[2]
  IC50: 1500 nM

## Cc1cc(=O)[nH]c(-n2ncc(C(=O)N(C)C3CCc4ccccc43)c2C)n1 (stereo not shown) [Q-0374]
[1]
  IC50: 9 nM
[2]
  IC50: 1200 nM

## Cc1cc(=O)[nH]c(-n2nc(C)c(C(=O)N3CCc4ccccc4C3)c2C)n1 [Q-0375]
[1]
  IC50: 20 nM
[2]
  IC50: 2500 nM

## Cc1cc(=O)[nH]c(-n2ccc(C(=O)N3CCc4ccccc43)n2)n1 [Q-0376]
[1]
  IC50: 30 nM
[2]
  IC50: 8200 nM

## Cc1cc(=O)[nH]c(-n2ccc(C(=O)N3c4ccccc4CC3C)n2)n1 (stereo not shown) [Q-0377]
[1]
  IC50: 40 nM
[2]
  IC50: 6300 nM

## Cc1c(C(=O)N2CCC(C)(C)C2)cnn1-c1nc2ccsc2c(=O)[nH]1 [Q-0380]
[1]
  IC50: 7 nM
[2]
  IC50: 2700 nM

## Cc1nc(-n2ncc(C(=O)N3CCc4ccccc4C3)c2C)[nH]c(=O)c1C [Q-0381]
[1]
  IC50: 10 nM
[2]
  IC50: 2100 nM

## Cc1c(C(=O)N2CCc3ccccc3C2)cnn1-c1nc2sccc2c(=O)[nH]1 [Q-0382]
[1]
  IC50: 3 nM
[2]
  IC50: 100 nM

## Cc1c(C(=O)N2CCc3ccccc3C2)cnn1-c1nc(C(C)(C)C)cc(=O)[nH]1 [Q-0383]
[1]
  IC50: 300 nM
[2]
  IC50: 69000 nM

## Cc1cc(=O)[nH]c(-n2ncc(C(=O)NCC3(c4ccccc4)CCCC3)c2C)n1 [Q-0385]
[1]
  IC50: 30 nM
[2]
  IC50: 3800 nM

## Cc1c(C(=O)N2CCc3ccccc3C2)cnn1-c1ncc(Cl)c(=O)[nH]1 [Q-0387]
[1]
  IC50: 10 nM
[2]
  IC50: 3700 nM

## O=C(c1ccn(-c2nc3ccsc3c(=O)[nH]2)n1)N1CCc2ccccc2C1 [Q-0388]
[1]
  IC50: 100 nM
[2]
  IC50: 36000 nM

## CC1(C)CCN(C(=O)c2ccn(-c3nc4ccsc4c(=O)[nH]3)n2)C1 [Q-0389]
[1]
  IC50: 20 nM
[2]
  IC50: 5600 nM

## O=C(c1ccn(-c2nc3ccsc3c(=O)[nH]2)n1)N1CCC(C(F)(F)F)CC1 [Q-0390]
[1]
  IC50: 20 nM
[2]
  IC50: 12000 nM

## Cc1c(C(=O)N2CCc3ccccc3C2)cnn1-c1nc(C(F)(F)F)cc(=O)[nH]1 [Q-0393]
[1]
  IC50: 6 nM
[2]
  IC50: 800 nM

## Cc1c(C(=O)N2CCCc3ccccc32)cnn1-c1nc2ccsc2c(=O)[nH]1 [Q-0395]
[1]
  IC50: 20 nM
[2]
  IC50: 500 nM

## Cc1c(C(=O)N2CCc3ccccc3C2)cnn1-c1nc2c(c(=O)[nH]1)CCC2 [Q-0396]
[1]
  IC50: 2 nM
[2]
  IC50: 61 nM

## Cc1c(C(=O)N2CCCC2(C)C)cnn1-c1nc2ccsc2c(=O)[nH]1 [Q-0397]
[1]
  IC50: 20 nM
[2]
  IC50: 2300 nM

## Cc1c(C(=O)N2CCC3(CCCC3)CC2)cnn1-c1nc2ccsc2c(=O)[nH]1 [Q-0398]
[1]
  IC50: 10 nM
[2]
  IC50: 72 nM

## Cc1c(C(=O)N2CCC(C(C)(C)C)CC2)cnn1-c1nc2ccsc2c(=O)[nH]1 [Q-0399]
[1]
  IC50: 3 nM
[2]
  IC50: 24 nM

## Cc1c(C(=O)N2CCC(C)CC2C)cnn1-c1nc2ccsc2c(=O)[nH]1 (stereo not shown) [Q-0400]
[1]
  IC50: 4 nM
[2]
  IC50: 200 nM

## Cc1c(C(=O)N2c3ccccc3CC2C)cnn1-c1nc2ccsc2c(=O)[nH]1 (stereo not shown) [Q-0401]
[1]
  IC50: 30 nM
[2]
  IC50: 400 nM

## Cc1c(C(=O)N2CC[C@H]3CCCC[C@H]3C2)cnn1-c1nc2ccsc2c(=O)[nH]1 [Q-0402]
[1]
  IC50: 10 nM
[2]
  IC50: 41 nM

## Cc1c(C(=O)N2CCC(C(F)(F)F)C2)cnn1-c1nc2ccsc2c(=O)[nH]1 (stereo not shown) [Q-0403]
[1]
  IC50: 9 nM
[2]
  IC50: 1100 nM

## Cc1nc(-n2ncc(C(=O)N3c4ccccc4CC3C)c2C)[nH]c(=O)c1C (stereo not shown) [Q-0404]
[1]
  IC50: 40 nM
[2]
  IC50: 4300 nM

## Cc1c(C(=O)N2CC(C)(C)OC(C)(C)C2)cnn1-c1nc2ccsc2c(=O)[nH]1 [Q-0405]
[1]
  IC50: 10 nM
[2]
  IC50: 1500 nM

## Cc1c(C(=O)N2CC(C(F)(F)F)CC(C(F)(F)F)C2)cnn1-c1nc2ccsc2c(=O)[nH]1 (stereo not shown) [Q-0406]
[1]
  IC50: 50 nM
[2]
  IC50: 2000 nM

## Cc1c(C(=O)N2CC[C@H]3CCCC[C@@H]3C2)cnn1-c1nc2ccsc2c(=O)[nH]1 [Q-0408]
[1]
  IC50: 10 nM
[2]
  IC50: 75 nM

## Cc1cc2nc(-n3ncc(C(=O)N4CCC(C(F)(F)F)CC4)c3C)[nH]c(=O)c2s1 [Q-0409]
[1]
  IC50: 200 nM
[2]
  IC50: 25000 nM

## Cc1c(C(=O)N2CCC(C(F)(F)F)CC2)cnn1-c1nc2sccc2c(=O)[nH]1 [Q-0410]
[1]
  IC50: 2 nM
[2]
  IC50: 200 nM

## Cc1nn(-c2nc3ccsc3c(=O)[nH]2)c(C)c1C(=O)N1CCC(C)(C)C1 [Q-0411]
[1]
  IC50: 9 nM
[2]
  IC50: 2700 nM

## Cc1c(C(=O)N2CCCCC2(C)C)cnn1-c1nc2ccsc2c(=O)[nH]1 [Q-0412]
[1]
  IC50: 9 nM
[2]
  IC50: 500 nM

## Cc1c(C(=O)N2[C@H](C)CCC[C@@H]2C)cnn1-c1nc2ccsc2c(=O)[nH]1 [Q-0417]
[1]
  IC50: 4 nM
[2]
  IC50: 900 nM

## Cc1nn(-c2nc3ccsc3c(=O)[nH]2)c(C)c1C(=O)N1CCC(C(F)(F)F)CC1 [Q-0419]
[1]
  IC50: 5 nM
[2]
  IC50: 700 nM

## Cc1nc(-n2ncc(C(=O)N3CCC(C(F)(F)F)CC3)c2C)[nH]c(=O)c1Cl [Q-0421]
[1]
  IC50: 3 nM
[2]
  IC50: 700 nM

## Cc1c(C(=O)N2CCC(C(F)(F)F)CC2C)cnn1-c1nc2ccsc2c(=O)[nH]1 (stereo not shown) [Q-0422]
[1]
  IC50: 3 nM
[2]
  IC50: 200 nM

## Cc1c(C(=O)N2CCC(F)(F)CC2)cnn1-c1nc2c(c(=O)[nH]1)CCC2 [Q-0424]
[1]
  IC50: 4 nM
[2]
  IC50: 1100 nM

## Cc1c(C(=O)N2CCC(C(F)(F)F)CC2)cnn1-c1nc2c(c(=O)[nH]1)CCCC2 [Q-0425]
[1]
  IC50: 30 nM
[2]
  IC50: 2100 nM

## Cc1c(C(=O)N2CCC(C(F)(F)F)CC2)cnn1-c1nc2c(ccn2C)c(=O)[nH]1 [Q-0426]
[1]
  IC50: 100 nM
[2]
  IC50: 16000 nM

## Cc1c(C(=O)N2CCC(c3ccccc3)CC2)cnn1-c1nc2c(c(=O)[nH]1)CCC2 [Q-0428]
[1]
  IC50: 3 nM
[2]
  IC50: 19 nM

## Cc1c(C(=O)N2CCC(C(F)(F)F)CC2)cnn1-c1nc2ccccc2c(=O)[nH]1 [Q-0429]
[1]
  IC50: 100 nM
[2]
  IC50: 49000 nM

## Cc1c(C(=O)N2CCC(C(F)(F)F)C2)cnn1-c1nc2c(c(=O)[nH]1)CCC2 (stereo not shown) [Q-0431]
[1]
  IC50: 3 nM
[2]
  IC50: 500 nM

## Cc1cc(=O)[nH]c(-n2cc(C(=O)N3CCC(C(F)(F)F)CC3)c(C)n2)n1 [Q-0432, 6-methyl-2-{3-methyl-4-[4-(trifluoromethyl)piperidine-1-carbonyl]-1H-pyrazol-1-yl}-3,4-dihydropyrimidin-4-one]
[1]
  IC50: 40 nM
[2]
  IC50: 6500 nM

## Cc1c(C(=O)N(CCC(F)(F)F)CC(F)(F)F)cnn1-c1nc2c(c(=O)[nH]1)CCC2 [Q-0435]
[1]
  IC50: 20 nM
[2]
  IC50: 1200 nM

## Cc1c(C(=O)N2CCC(C(F)(F)F)CC2)cnn1-c1nc2[nH]ncc2c(=O)[nH]1 [Q-0438]
[1]
  IC50: 100 nM
[2]
  IC50: 35000 nM

## Cc1cc(-n2ncc(C(=O)N3CCC(C(F)(F)F)CC3)c2C)[nH]c(=O)c1 [Q-0439, 4-methyl-6-{5-methyl-4-[4-(trifluoromethyl)piperidine-1-carbonyl]-1H-pyrazol-1-yl}-1,2-dihydropyridin-2-one]
[1]
  IC50: 1 nM
[2]
  IC50: 96 nM

## Cc1cc(-n2cc(C(=O)N3CCC(C(F)(F)F)CC3)c(C)n2)[nH]c(=O)c1 [Q-0440, 4-methyl-6-{3-methyl-4-[4-(trifluoromethyL)piperidine-1-carbonyl]-1H-pyrazol-1-yl}-1,2-dihydropyridin-2-one]
[1]
  IC50: 9 nM
[2]
  IC50: 1400 nM

## Cc1c(C(=O)N2CCC(C(F)(F)F)CC2)cnn1-c1nc2scnc2c(=O)[nH]1 [Q-0441]
[1]
  IC50: 100 nM
[2]
  IC50: 31000 nM

## Cc1cc(=O)[nH]c(-n2cc(C(=O)N3CCC(C(F)(F)F)CC3)cn2)n1 [Q-0443]
[1]
  IC50: 9 nM
[2]
  IC50: 3900 nM

## Cc1cc(=O)[nH]c(-n2ncc(C(=O)N3CCC(C(F)(F)F)CC3)c2C(C)C)n1 [Q-0444]
[1]
  IC50: 10 nM
[2]
  IC50: 2700 nM

## CC(C)c1c(C(=O)N2CCC(C(F)(F)F)CC2)cnn1-c1nc2c(c(=O)[nH]1)CCC2 [Q-0445]
[1]
  IC50: 10 nM
[2]
  IC50: 900 nM

## Cc1c(C(=O)N2CCC(O)(c3ccccc3)CC2)cnn1-c1nc2c(c(=O)[nH]1)CCC2 [Q-0446]
[1]
  IC50: 7 nM
[2]
  IC50: 96 nM

## Cc1c(C(=O)N2CCC(C(C)(O)C(F)(F)F)CC2)cnn1-c1nc2c(c(=O)[nH]1)CCC2 (stereo not shown) [Q-0449]
[1]
  IC50: 3 nM
[2]
  IC50: 78 nM
